The nature of assay [1]: Competitive inhibition of Acidithiobacillus ferrooxidans KDO8P synthase using PEP as substrate after 10 to 15 mins by Michaelis-Menten equation.
Assay [2] deals with 2-dehydro-3-deoxyphosphooctonate aldolase (Neisseria meningitidis serogroup B (strain MC58), UniProt Q9JZ55). In words: Competitive inhibition of Neisseria meningitidis serotype B strain MC58 ATCC BAA355 KDO8P synthase expressed in Escherichia coli BL21 (DE3) cells using PEP as substrate after 10 to 15 mins by Michaelis-Menten equation.
Assay [3] is described as follows: Inhibition of Helicobacter pylori KDO8P.
The nature of assay [4]: Inhibition of Escherichia coli KDO8P.

Chain of 2-dehydro-3-deoxyphosphooctonate aldolase (Q9JZ55 whole entry): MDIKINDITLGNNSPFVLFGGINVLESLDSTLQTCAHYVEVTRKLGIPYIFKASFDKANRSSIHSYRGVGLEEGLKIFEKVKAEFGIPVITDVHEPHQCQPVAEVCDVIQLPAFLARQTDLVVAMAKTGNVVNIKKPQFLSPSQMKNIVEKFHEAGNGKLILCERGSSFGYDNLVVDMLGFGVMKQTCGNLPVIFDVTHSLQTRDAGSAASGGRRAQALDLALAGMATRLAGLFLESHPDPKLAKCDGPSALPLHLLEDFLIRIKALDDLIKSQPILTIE

`C[C@H](OP(=O)(O)O)C(=O)O`: the Ki in assay [1] was 1000 µM; in assay [2], 1200 µM.
On the same counts, the results for `O=C(O)C(CCCCCCOP(=O)(O)O)OP(=O)(O)O` (centres undefined) are 20 µM and 7.9 µM.
In the case of `O=C(O)CN(C[C@@H](O)[C@@H](O)[C@H](O)[C@H](O)COP(=O)(O)O)CP(=O)(O)O`, in assay [3], 132 µM corresponded to half-maximal inhibition (IC50). The compound also displayed a Ki in assay [4] of 370 nM.
On to `C[C@@H](OP(=O)(O)O)C(=O)O`, for which the inhibition constant (Ki) amounted to 390 µM in assay [1] and 870 µM in assay [2].
Turning to `O=C(O)C(CCCCCCO)OP(=O)(O)O` (centres undefined), the figures for the Ki in assay [1] and in assay [2] were 540 µM and 1000 µM, respectively.
The corresponding values for `O=C(O)C(O)CCCCCCOP(=O)(O)O` (centres undefined) are 190 µM and 270 µM.
With `O=C(O)CNCP(=O)(O)O` [GLYPHOSATE], the inhibition constant (Ki) in assay [1] was 330 µM; in assay [2], 260 µM.

As a reminder, the Ki is a measure of affinity in units of concentration, obtained from inhibition or displacement. By IC50 is commonly meant the concentration that inhibits the measured activity by half. Low values mean greater potency, high ones weaker potency.

(Values after ChEMBL document CHEMBL1938378, “Synthesis and evaluation of tetrahedral intermediate mimic inhibitors of 3-deoxy-d-manno-octulosonate 8-phosphate synthase” (Bioorg Med Chem Lett, 2012).)
